Columns and labels:
Format in all cases: functional
[1] = Effect on copper-induced human LDL peroxidation assessed as inhibition of malonaldehyde production at 200 uM after 4 hrs; parameters: scale not given: the % may be the effect or the level left
[2] = Effect on copper-induced human LDL peroxidation assessed as inhibition of malonaldehyde production at 2 uM after 4 hrs; parameters: scale not given: the % may be the effect or the level left
[3] = Protective effect on copper-induced LDL oxidation at 20:1 copper to drug ratio relative to 40 uM copper
[4] = Protective effect on copper-induced LDL oxidation at 4:1 copper to drug ratio relative to 40 uM copper
[5] = Protective effect on copper-induced LDL oxidation at 1:5 copper to drug ratio relative to 40 uM copper
[6] = Protective effect on copper-induced LDL oxidation at 2:1 copper to drug ratio relative to 40 uM copper
[7] = Protective effect on copper-induced LDL oxidation at 8:1 copper to drug ratio relative to 40 uM copper
[8] = Effect on copper-induced human LDL peroxidation assessed as inhibition of malonaldehyde production at 5 uM after 4 hrs; parameters: scale not given: the % may be the effect or the level left
[9] = Protective effect on copper-induced LDL oxidation at 1:2.5 copper to drug ratio relative to 40 uM copper
[10] = Protective effect on copper-induced LDL oxidation at 1:1.25 copper to drug ratio relative to 40 uM copper
[11] = Effect on copper-induced human LDL peroxidation assessed as inhibition of malonaldehyde production at 50 uM after 4 hrs; parameters: scale not given: the % may be the effect or the level left
[12] = Effect on copper-induced human LDL peroxidation assessed as inhibition of malonaldehyde production at 20 uM after 4 hrs; parameters: scale not given: the % may be the effect or the level left
[13] = Effect on copper-induced human LDL peroxidation assessed as inhibition of malonaldehyde production at 10 uM after 4 hrs; parameters: scale not given: the % may be the effect or the level left
[14] = Effect on copper-induced human LDL peroxidation assessed as inhibition of malonaldehyde production at 100 uM after 4 hrs; parameters: scale not given: the % may be the effect or the level left

Q: With `NCCC(=O)N[C@@H](Cc1c[nH]cn1)C(=O)O` as the molecule, how does the Activity [1] read?
A: The Activity was 22.5%.

Q: What about the Activity [2] of the same molecule?
A: Its Activity is 0.28%.

Q: And the Activity [3]?
A: The Activity was 0%.

Q: And the Activity [4]?
A: The Activity was 1%.

Q: And the Activity [5]?
A: Its Activity is 22%.

Q: And the Activity [6]?
A: The Activity was 3%.

Q: And the Activity [7]?
A: Its Activity is 1%.

Q: What about the Activity [8] of the same molecule?
A: Its Activity is 0.93%.

Q: And the Activity [9]?
A: The Activity was 15%.

Q: What about the Activity [10] of the same molecule?
A: The Activity was 9%.

Q: What about the Activity [11] of the same molecule?
A: The Activity was 9.13%.

Q: And the Activity [12]?
A: Its Activity is 2.72%.

Q: And the Activity [13]?
A: The Activity was 1.38%.

Q: And the Activity [14]?
A: Its Activity is 15.1%.

Q: Which results are given for `OC[C@H]1O[C@@H]2O[C@H]3[C@H](O)[C@@H](O)[C@@H](O[C@H]4[C@H](O)[C@@H](O)[C@@H](O[C@H]5[C@H](O)[C@@H](O)[C@@H](O[C@H]6[C@H](O)[C@@H](O)[C@@H](O[C@H]7[C@H](O)[C@@H](O)[C@@H](O[C@H]8[C@H](O)[C@@H](O)[C@@H](O[C@H]1[C@H](O)[C@H]2O)O[C@@H]8CO)O[C@@H]7CO)O[C@@H]6CO)O[C@@H]5CO)O[C@@H]4CO)O[C@@H]3CO`?
A: Activity [1]: 10.7%; Activity [2]: 0.11%; Activity [8]: 0.38%; Activity [11]: 3.87%; Activity [12]: 1.26%; Activity [13]: 0.65%; Activity [14]: 6.94%

Q: Which Activity [1] does the source give for `NCCCC(=O)N[C@@H](Cc1cnc[nH]1)C(=O)O` here?
A: The Activity was 17.6%.

Q: And the Activity [2]?
A: Its Activity is 0.31%.

Q: And the Activity [3]?
A: The Activity was 0%.

Q: And the Activity [4]?
A: Its Activity is 2%.

Q: And the Activity [5]?
A: Its Activity is 18%.

Q: What about the Activity [6] of the same molecule?
A: Its Activity is 3%.

Q: What about the Activity [7] of the same molecule?
A: Its Activity is 1%.

Q: And the Activity [8]?
A: Its Activity is 1.02%.

Q: What about the Activity [9] of the same molecule?
A: Its Activity is 12%.

Q: What about the Activity [10] of the same molecule?
A: Its Activity is 8%.

Q: What about the Activity [11] of the same molecule?
A: The Activity was 8.28%.

Q: And the Activity [12]?
A: The Activity was 2.5%.

Q: And the Activity [13]?
A: The Activity was 1.86%.

Q: What about the Activity [14] of the same molecule?
A: Its Activity is 12.1%.

— ChEMBL document CHEMBL1147871, “Synthesis and antioxidant activity of new homocarnosine beta-cyclodextrin conjugates” (Eur J Med Chem, 2007)
